The record followed here is ChEMBL document CHEMBL4819093, “Discovery of 1-[2-(1-methyl-1H-pyrazol-5-yl)-[1,2,4]triazolo[1,5-a]pyridin-6-yl]-3-(pyridin-4-ylmethyl)urea as a potent NAMPT (nicotinamide phosphoribosyltransferase) activator with attenuated CYP inhibition” (Bioorg Med Chem Lett, 2021).

Converted amounts (≈) assume the structure as drawn. Some results are limits rather than exact numbers.

In series [1] the target is T1, Nicotinamide phosphoribosyltransferase (Homo sapiens, UniProt P43490). Nature of the series: Inhibition of human NAMPT assessed as decrease in NMN production by fluorescence based analysis.
T1 sequence (P43490 whole entry): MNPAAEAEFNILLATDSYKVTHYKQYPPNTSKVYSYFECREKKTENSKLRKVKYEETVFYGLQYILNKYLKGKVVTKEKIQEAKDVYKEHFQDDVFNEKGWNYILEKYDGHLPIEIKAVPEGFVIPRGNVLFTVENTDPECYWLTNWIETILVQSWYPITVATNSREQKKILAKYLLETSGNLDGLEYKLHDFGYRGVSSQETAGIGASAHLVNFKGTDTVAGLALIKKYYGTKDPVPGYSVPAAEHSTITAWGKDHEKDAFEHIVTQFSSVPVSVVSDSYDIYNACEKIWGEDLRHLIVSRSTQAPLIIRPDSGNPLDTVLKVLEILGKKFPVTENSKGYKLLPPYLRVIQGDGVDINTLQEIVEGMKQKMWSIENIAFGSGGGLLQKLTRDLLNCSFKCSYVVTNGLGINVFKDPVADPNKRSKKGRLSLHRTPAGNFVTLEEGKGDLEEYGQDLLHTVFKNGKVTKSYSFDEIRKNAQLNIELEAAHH
For series [2], the target named is T2, CYP1A2 (Homo sapiens, UniProt P05177).
T2 sequence (P05177 whole entry): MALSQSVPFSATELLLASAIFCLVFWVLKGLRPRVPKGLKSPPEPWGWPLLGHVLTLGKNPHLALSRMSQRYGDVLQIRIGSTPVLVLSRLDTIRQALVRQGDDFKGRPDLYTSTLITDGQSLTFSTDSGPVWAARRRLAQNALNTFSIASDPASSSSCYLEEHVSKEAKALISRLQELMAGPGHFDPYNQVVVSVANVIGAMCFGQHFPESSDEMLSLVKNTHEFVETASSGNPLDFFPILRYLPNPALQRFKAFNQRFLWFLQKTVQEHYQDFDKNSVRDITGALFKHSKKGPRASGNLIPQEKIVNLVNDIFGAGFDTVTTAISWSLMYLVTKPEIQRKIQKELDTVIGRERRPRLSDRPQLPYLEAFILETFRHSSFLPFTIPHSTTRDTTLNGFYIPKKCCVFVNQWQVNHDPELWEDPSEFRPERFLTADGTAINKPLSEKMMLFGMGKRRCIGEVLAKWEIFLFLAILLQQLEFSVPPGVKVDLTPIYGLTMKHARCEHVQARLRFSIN
Nature of the series: Inhibition of CYP1A2 (unknown origin) at 10 uM measured after 10 mins. It counts as ADME.

Series [3] addresses CYP2C9 (Homo sapiens, UniProt P11712). Nature of the series: Inhibition of CYP2C9 (unknown origin) at 10 uM measured after 10 mins. It counts as ADME.
The target of series [4] is CYP2D6 (Homo sapiens, UniProt P10635). Nature of the series: Inhibition of CYP2D6 (unknown origin) at 10 uM measured after 10 mins. It counts as ADME.
CYP2D6, sequence (P10635 whole entry): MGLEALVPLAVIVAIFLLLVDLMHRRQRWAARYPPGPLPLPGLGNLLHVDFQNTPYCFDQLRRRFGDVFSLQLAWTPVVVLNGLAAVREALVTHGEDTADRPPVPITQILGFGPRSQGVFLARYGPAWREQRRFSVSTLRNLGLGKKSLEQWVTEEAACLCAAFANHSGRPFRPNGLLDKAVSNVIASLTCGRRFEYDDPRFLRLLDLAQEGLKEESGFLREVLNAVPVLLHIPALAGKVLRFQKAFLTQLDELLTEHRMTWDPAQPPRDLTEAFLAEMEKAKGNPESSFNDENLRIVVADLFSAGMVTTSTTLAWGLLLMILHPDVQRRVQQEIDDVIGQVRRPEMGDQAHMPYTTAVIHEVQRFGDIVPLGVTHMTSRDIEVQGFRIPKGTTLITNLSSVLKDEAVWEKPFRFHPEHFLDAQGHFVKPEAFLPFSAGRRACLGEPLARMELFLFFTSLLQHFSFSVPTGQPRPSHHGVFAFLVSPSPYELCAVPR
Series [5] has as its target CYP3A4 (Homo sapiens, UniProt P08684). Nature of the series: Inhibition of CYP3A4 (unknown origin) at 10 uM measured after 10 mins. In kind it is ADME.
The target of series [6] is T1, Nicotinamide phosphoribosyltransferase. The series can be described thus: Activation of human NAMPT assessed as increase in NMN production by fluorescence based analysis.
The target in series [7] is T3, hERG (KCNH2) (Homo sapiens, UniProt Q12809). Nature of the series: Inhibition of human ERG at 3 uM.
T3 sequence (Q12809 whole entry): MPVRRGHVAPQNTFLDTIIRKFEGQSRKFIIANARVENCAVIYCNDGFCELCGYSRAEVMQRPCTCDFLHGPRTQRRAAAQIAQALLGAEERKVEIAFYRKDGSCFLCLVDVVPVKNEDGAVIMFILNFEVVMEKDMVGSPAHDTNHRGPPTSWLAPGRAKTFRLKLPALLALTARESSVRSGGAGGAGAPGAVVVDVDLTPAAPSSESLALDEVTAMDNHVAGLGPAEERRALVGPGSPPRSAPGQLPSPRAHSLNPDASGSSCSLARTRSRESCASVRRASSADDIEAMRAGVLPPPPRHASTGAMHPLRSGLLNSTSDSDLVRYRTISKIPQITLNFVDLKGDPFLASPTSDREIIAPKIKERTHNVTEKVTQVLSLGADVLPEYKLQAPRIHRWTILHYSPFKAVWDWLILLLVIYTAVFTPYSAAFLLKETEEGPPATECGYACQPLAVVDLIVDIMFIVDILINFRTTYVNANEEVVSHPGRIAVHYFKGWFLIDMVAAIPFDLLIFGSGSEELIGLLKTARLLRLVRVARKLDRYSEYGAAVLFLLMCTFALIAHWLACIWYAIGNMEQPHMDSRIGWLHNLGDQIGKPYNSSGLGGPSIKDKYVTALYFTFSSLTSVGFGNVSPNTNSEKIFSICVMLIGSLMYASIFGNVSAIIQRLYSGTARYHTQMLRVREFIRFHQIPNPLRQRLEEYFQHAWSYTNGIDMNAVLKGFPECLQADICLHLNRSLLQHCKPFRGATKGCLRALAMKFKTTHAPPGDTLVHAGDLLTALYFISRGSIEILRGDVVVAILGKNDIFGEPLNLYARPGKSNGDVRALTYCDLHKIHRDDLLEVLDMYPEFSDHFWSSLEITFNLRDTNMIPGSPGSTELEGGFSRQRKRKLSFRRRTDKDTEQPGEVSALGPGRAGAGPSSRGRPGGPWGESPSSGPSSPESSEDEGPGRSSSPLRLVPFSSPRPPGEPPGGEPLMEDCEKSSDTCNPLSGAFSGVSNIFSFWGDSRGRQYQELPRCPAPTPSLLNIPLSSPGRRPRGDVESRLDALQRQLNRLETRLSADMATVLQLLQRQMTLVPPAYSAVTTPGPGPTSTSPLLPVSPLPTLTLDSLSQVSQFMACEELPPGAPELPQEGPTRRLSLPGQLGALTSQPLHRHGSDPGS
Series [8] addresses T3, hERG (KCNH2). Nature of the series: Inhibition of human ERG at 10 uM.
Series [9] addresses T3, hERG (KCNH2). Nature of the series: Inhibition of human ERG at 30 uM.
Series [10] in a line: 1-Octanol/PBS buffer distribution coefficient, log D of the compound at pH 7.4.
Series [11] can be described thus: Permeability of the compound at pH 5 by PAMPA. (In general: The PAMPA barrier holds no transporters, so it reflects passive diffusion.)
Series [12] can be described thus: Permeability of the compound at pH 7.4 by PAMPA.
Series [13] can be described thus: Metabolic stability in human microsome assessed as parent compound remaining at 1 uM measured after 30 mins. The following applies: microsomes.
The nature of series [14]: Metabolic stability in mouse microsome fraction assessed as parent compound remaining at 1 uM measured after 30 mins. The following applies: microsomes.
Series [15] is described as follows: Solubility of the compound at pH 1.2. To be noted: buffer.
Series [16] in a line: Solubility of the compound at pH 6.8. The following applies: buffer.
A short description of series [17]: Half life in C57BL/6N mouse at 10 mg/kg, po. The following applies: in vivo.
Series [18] is described as follows: in vivo. To be noted: C57BL/6N, mouse, po, 10 mg/kg.
Series [19] in a line: in vivo. To be noted: C57BL/6N, mouse, po, 10 mg/kg. This is another data set of the same source.

CYP3A4, sequence (P08684 whole entry): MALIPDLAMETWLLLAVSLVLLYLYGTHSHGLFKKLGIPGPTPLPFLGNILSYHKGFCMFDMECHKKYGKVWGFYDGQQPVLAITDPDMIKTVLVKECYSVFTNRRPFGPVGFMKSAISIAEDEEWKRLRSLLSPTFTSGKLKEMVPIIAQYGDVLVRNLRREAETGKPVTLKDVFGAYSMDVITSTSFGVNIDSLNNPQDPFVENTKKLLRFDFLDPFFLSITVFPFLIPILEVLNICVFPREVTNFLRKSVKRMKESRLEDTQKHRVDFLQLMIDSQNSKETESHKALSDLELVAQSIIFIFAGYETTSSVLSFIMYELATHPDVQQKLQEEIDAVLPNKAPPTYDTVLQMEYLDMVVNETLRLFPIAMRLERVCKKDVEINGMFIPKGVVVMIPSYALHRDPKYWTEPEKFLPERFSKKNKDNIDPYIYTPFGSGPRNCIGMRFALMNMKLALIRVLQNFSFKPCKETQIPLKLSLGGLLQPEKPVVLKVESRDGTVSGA
CYP2C9, sequence (P11712 whole entry): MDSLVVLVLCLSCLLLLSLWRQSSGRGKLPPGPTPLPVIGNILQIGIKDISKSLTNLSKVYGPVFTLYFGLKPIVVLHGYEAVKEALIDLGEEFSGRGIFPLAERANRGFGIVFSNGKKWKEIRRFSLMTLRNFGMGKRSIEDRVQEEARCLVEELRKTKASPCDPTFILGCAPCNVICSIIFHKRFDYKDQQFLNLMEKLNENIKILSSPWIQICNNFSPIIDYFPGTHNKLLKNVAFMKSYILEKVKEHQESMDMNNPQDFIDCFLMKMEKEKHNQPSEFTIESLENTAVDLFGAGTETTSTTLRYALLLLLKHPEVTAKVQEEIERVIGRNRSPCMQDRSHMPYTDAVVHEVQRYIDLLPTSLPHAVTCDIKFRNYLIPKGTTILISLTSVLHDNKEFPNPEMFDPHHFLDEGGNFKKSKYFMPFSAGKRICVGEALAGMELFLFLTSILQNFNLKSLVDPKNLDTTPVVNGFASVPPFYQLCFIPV

By IC50 is commonly meant the concentration needed to halve the response being measured. `Cc1ccc(C(=O)N2CCc3cc(NC(=O)NCc4cccnc4)ccc32)cc1`: the IC50 in series [1] stood at 32 nM.
What is called inhibition is the share of the control response that was lost under treatment. `O=C(NCc1ccncc1)Nc1ccc2cc(-c3ccccc3)nn2c1`: the inhibition at 10 min, 10 µM came out at 81% in series [2], 78% in series [3], 70% in series [4] and 53% in series [5].
Take `O=C(NCc1cnco1)Nc1ccc2nc(-c3ccccc3)nn2c1`: the inhibition at 10 min, 10 µM stood at 69% in [2], 59% in series [3], 13% in [4] and 0% in series [5].
As for `O=C(NCc1cn[nH]c1)Nc1ccc2nc(-c3ccccc3)nn2c1`, the inhibition at 10 min, 10 µM in [2] was 86%; in series [3], 59%; in series [4], 23%; in series [5] it was 0%.
In general, EC50 refers to the concentration that produces a half-maximal response. With `CC(C)c1nc2ccc(NC(=O)NCc3ccncc3)cn2n1`, the EC50 in series [6] worked out at 5800 nM.
On to `CC(C)n1nccc1-c1nc2ccc(NC(=O)NCc3ccncc3)cn2n1`, for which the inhibition at 10 min, 10 µM in series [2] was found to be 12%; in series [3], 79%; in [4], 17%; in series [5] it was 4%.
On to `Cn1nccc1-c1nc2ccc(NC(=O)NCc3ccncc3)cn2n1`, for which the inhibition at 10 min, 10 µM in [2] was determined as 15%; in series [3], 42%; in [4], 16%; in series [5], 25%. In series [7], the inhibition at 3 µM worked out at 11%. The inhibition at 10 µM in series [8] amounted to 14%. Also, in [9], the inhibition at 30 µM came out at 25%.
Broadly, the logD is lipophilicity at a set pH, counting ionised and neutral species. Take `O=C(NCc1ccncc1)Nc1ccc2nc(-c3ccc(OC(F)(F)F)cc3)nn2c1`: in series [6], the EC50 was > 100000 nM. Moreover, the logD in series [10] worked out at 4.4. Also, the inhibition at 10 min, 10 µM in series [2] amounted to 8%; in series [3] it was 81%; in series [4], 24%; in series [5], 0%.
`Cc1ccc(C(=O)N2CCc3cc(NC(=O)NCc4ccncc4)ccc32)cc1`: the EC50 in [6] stood at 480 nM.
Consider `COCCn1nccc1-c1nc2ccc(NC(=O)NCc3ccncc3)cn2n1`, for which the inhibition at 10 min, 10 µM in series [2] was 6%; in [3], 44%; in series [4], 13%; in series [5] it was 18%.
One may read the Papp as a coefficient for how fast a substance crosses the barrier. Low values mean poor permeation, high ones ready permeation. One may read the amount remaining as the share of the starting amount still present when the sample was taken. For `O=C(NCc1ccncc1)Nc1ccc2cn(-c3ccccc3)nc2c1`, the logD in [10] was 3.2. Also, the Papp in series [11] was 4.6 ×10⁻⁶ cm/s; in series [12] it was > 5 ×10⁻⁶ cm/s. The share remaining at 0.5 h, 1 µM in series [13] was found to be 87%; in series [14], 83%. The inhibition at 10 min, 10 µM in [2] was found to be 88%; in [3] it was 74%; in series [4] it was 50%; in series [5], 75%.
Turning to `O=C(NCc1ccncc1)Nc1ccc2nc(-c3ccccc3OC(F)(F)F)nn2c1`, the inhibition at 10 min, 10 µM worked out at 43% in [2], 78% in [3], 50% in [4] and 65% in series [5].
As to `Cn1cccc1-c1nc2ccc(NC(=O)NCc3ccncc3)cn2n1`, the EC50 in series [6] amounted to 120 nM. Further, the logD in series [10] was 2.6. For the same molecule, the inhibition at 10 min, 10 µM in [2] came to 51%; in series [3], 75%; in series [4] it was 27%; in series [5], 40%.
Consider `O=C(NCc1ccncc1)Nc1ccc2nc(-c3cccc(OC(F)(F)F)c3)nn2c1`, for which the inhibition at 10 min, 10 µM in series [2] was 28%; in series [3], 90%; in series [4] it was 36%; in series [5] it was 0%.
As a reminder, the solubility is how much of the substance goes into solution per volume. Low values mean little dissolved substance, high ones much dissolved substance. As a reminder, the half-life is the time needed for the level to fall by half in the phase considered. The Cmax is the maximum level reached in the sampled fluid or tissue. As a reminder, the AUC(0-t) is exposure summed from dosing to a finite time, without extrapolation to infinity. `O=C(NCc1ccncc1)Nc1ccc2nc(-c3ccccc3)nn2c1`: the EC50 in series [6] was 83 nM. Further, in [10], the log distribution coefficient (logD) worked out at 3. Besides, the values for the Papp in [11] and in series [12] were 1.42 ×10⁻⁶ cm/s and 2.76 ×10⁻⁶ cm/s, respectively. Besides, the values for the solubility in series [15] and in series [16] were > 680 µg/mL and 92 µg/mL (≈ 267 µM), respectively. Moreover, the fraction remaining at 0.5 h, 1 µM in series [13] amounted to 95%; in [14], 86%. Besides, the inhibition at 10 min, 10 µM in [2] worked out at 63%; in series [3] it was 79%; in series [4], 21%; in series [5], 37%. The molecule further came in with an inhibition at 3 µM in [7] of 20%. Also, the inhibition at 10 µM in [8] was found to be 51%. In series [9], 30 µM produced 69% inhibition. In [17], this molecule showed a half-life of 54 min. The same molecule showed a Cmax in series [18] of 9.2 µM. The molecule further showed an AUC(0-t) at 24 h in series [19] of 25 µM·h.
